Measured values: publication PMC11094307, “Marine-derived EGFR inhibitors: novel compounds targeting breast cancer growth and drug resistance” (Frontiers in Pharmacology, 2024)

Tests used:
[1] = target: T1, EGFR extracellular ligand binding domain (Homo sapiens, UniProt P00533); assay: SPR binding (Biacore 8K)
T1 construct: His; purchased Sinobiological, China
Source text: The extracellular ligand-binding domain of EGFR, tagged with His, and the intracellular tyrosine kinase (TK) domain of EGFR, tagged with GST, were acquired from Sinobiological, China. Kinase assay systems for both wild-type EGFR and its mutants—T790M, L858R, and the dual L858R/T790M—were procured from Promega Corporation, USA. Cell lines including MCF-7, A549, A431, H1299, HL-60, and MCF-10A were obtained from the China Infrastructure Cell Line Resources.
The binding affinities of compounds towards EGFR extracellular ligand binding domain and EGFR intracellular kinase domain were assayed using the SPR-based Biacore 8K instrument (Cytiva). Considering the purchased EGFR was fused with GST tag, GST alone was also immobilized on the chip to do the binding measurement. All the proteins were respectively immobilized on a CM5 sensor chip by using standard amine-coupling at 25°C with running buffer HEPES-P (20 mM HEPES buffer, […], 0.05% surfactant P20, pH 7.4). A reference channel was only activated and blocked to eliminate compound unspecific binding to the surface of the chip. The immobilization level of EGFR extracellular ligand binding domain, EGFR intracellular kinase domain and GST were all about 10,000 RU. […] Extra wash with 50% DMSO was added to remove the last remaining sample in the pipeline.

[2] = tested on: MCF-7 cells; assay: Annexin V-FITC/PI apoptosis analysis; assay type: cell-based, human; details: 24 h
Experimental: Apoptosis was evaluated using the Annexin V-FITC/PI Apoptosis Detection Kit (Vazyme). The harvested MCF-7 cells were first resuspended in 1× binding buffer from the kit to achieve a final concentration of 1×10^6 cells/ml. Next, 100 μL of the cell suspension, 5 μL of Annexin V, and 10 μL of PI were mixed and incubated in the dark for 15 min. Subsequently, 400 μL of 1× binding buffer was added to the mixture in preparation for apoptosis analysis.

[3] = tested on: A431 cells; assay: MTT assay, A431; assay type: cell-based, human; details: A431 (high EGFR-expressing), 10 μM
Experimental: (§1) The cell lines MCF-7 and A431 were cultured in Dulbecco’s Modified Eagle’s Medium (DMEM, Gibco, USA), while HL-60, H1299, and A549 cells were maintained in RPMI-1640 medium (Gibco, USA). Both mediums were enriched with 10% fetal bovine serum and 1% penicillin/streptomycin. […] All cell cultures were incubated at 37°C in an atmosphere containing 5% CO2.
(§2) Cells in the exponential growth phase were seeded into 96-well plates and allowed to adhere overnight. Subsequently, they were treated in triplicate with various concentrations of the compounds (0, 1.56, 3.13, 6.25, 12.5, 25, 50, 100 µM), […]. After 24 h, 20 µL of Methyl-thiazolyldiphenyl-tetrazolium bromide (MTT, 5 mg/mL, Thermo Fisher Scientific) was added to each well and incubated for a minimum of 4 h. Following the incubation, the medium containing the compounds and MTT was removed from each well, and 200 µL of dimethyl sulfoxide (DMSO) was added. The plates were then shaken for 10 min at 37°C to dissolve the formazan crystals. The absorbance was measured using a microplate reader (BioTek Synergy 4) at a wavelength of 490 nm.

[4] = tested on: MCF-7 cells; assay: MTT assay, MCF-7 growth inhibition; assay type: cell-based, human
Experimental: Both mediums were enriched with 10% fetal bovine serum and 1% penicillin/streptomycin.
Cells in the exponential growth phase were seeded into 96-well plates and allowed to adhere overnight. […] After 24 h, 20 µL of Methyl-thiazolyldiphenyl-tetrazolium bromide (MTT, 5 mg/mL, Thermo Fisher Scientific) was added to each well and incubated for a minimum of 4 h. Following the incubation, the medium containing the compounds and MTT was removed from each well, and 200 µL of dimethyl sulfoxide (DMSO) was added.
All experiments were repeated at least three times, and the data are presented as mean ± standard deviation (SD). The statistical analyses were performed using Origin. EC50 or IC50 values were obtained by fitting the data to a four-parameter Hill model of the graph of log dose against percentage cell viability or inhibition from at least three sets of experiments. Difference between two groups were analyzed by Student’s t test (two-sided) and significance was set at p < 0.05. The specific details about statistical methods are introduced in respective figure legends.

[5] = target: FGFR2 (Homo sapiens, UniProt P21802); assay: Kinase profiling; assay type: biochemical; details: one of the other seven tyrosine kinases
Experimental: (§3) The experiments were conducted in accordance with the manufacturer’s guidelines (Promega). The procedure began with a kinase reaction, where 5 μL of 1× kinase buffer was utilized, and the mixture was incubated at room temperature for 60 min. This step was followed by the addition of 5 μL of ADP-Glo™ reagent to terminate the kinase reaction and to deplete any remaining ATP, with a subsequent incubation period of 40 min at room temperature. Next, 10 μL of kinase detection reagent was added to convert ADP back into ATP, and luciferase along with luciferin was introduced to facilitate ATP detection. This mixture was then incubated at room temperature for an additional 30 min. Detection was carried out using a BioTek Synergy4 instrument, and data analysis, including curve fitting and presentation, was performed using GraphPad Prism version 5.0. […]; [Song et al., 2017]; [Abou-Zied et al., 2019]).

[6] = target: HER4 (Homo sapiens, UniProt Q15303); assay: Kinase profiling; assay type: biochemical
Experimental: as §3

[7] = tested on: H1299 cells; assay: MTT assay, H1299; assay type: cell-based, human; details: H1299 (high EGFR-expressing), 10 μM
Experimental: as §1, §2

[8] = target: T2, EGFR kinase domain (Homo sapiens, UniProt P00533); assay: Differential Scanning Fluorimetry (DSF); assay type: binding; details: 10 µM; 52.6°C at 0 µM
T2 construct: the intracellular tyrosine kinase (TK) domain of EGFR, tagged with GST; purchased Sinobiological, China
Experimental: In the Differential Scanning Fluorimetry (DSF) study, concentrations of Tandyukisin-1.3, 2.5, 5, and 10 µM-were incubated with 0.05 mg/mL of the EGFR kinase domain. A control sample, containing only 5% DMSO, was used alongside the EGFR kinase domain. The thermal stability of the EGFR kinase domain was assessed using PR NT.48 (NanoTemper). The assay conditions were set to a temperature range of 25°C–95°C with a ramp rate of 1 °C/min.

T1 sequence (P00533 25-645 limits assumed): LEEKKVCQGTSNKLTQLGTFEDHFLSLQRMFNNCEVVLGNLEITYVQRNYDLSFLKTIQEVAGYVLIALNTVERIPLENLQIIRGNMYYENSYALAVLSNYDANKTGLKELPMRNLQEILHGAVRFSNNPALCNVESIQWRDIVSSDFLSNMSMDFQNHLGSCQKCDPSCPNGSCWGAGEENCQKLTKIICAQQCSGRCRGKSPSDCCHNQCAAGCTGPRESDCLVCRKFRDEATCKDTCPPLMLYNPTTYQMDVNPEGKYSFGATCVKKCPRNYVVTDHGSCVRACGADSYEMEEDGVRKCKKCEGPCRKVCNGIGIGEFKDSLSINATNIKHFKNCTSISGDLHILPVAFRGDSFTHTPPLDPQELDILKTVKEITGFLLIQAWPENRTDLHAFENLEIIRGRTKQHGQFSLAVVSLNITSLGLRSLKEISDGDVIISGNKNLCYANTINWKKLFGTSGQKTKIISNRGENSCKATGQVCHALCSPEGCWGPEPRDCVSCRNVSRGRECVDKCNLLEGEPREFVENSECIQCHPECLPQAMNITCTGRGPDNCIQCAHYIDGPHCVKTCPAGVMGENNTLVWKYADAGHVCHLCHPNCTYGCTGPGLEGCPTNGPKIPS
Sequence of HER4 (Q15303 26-1308): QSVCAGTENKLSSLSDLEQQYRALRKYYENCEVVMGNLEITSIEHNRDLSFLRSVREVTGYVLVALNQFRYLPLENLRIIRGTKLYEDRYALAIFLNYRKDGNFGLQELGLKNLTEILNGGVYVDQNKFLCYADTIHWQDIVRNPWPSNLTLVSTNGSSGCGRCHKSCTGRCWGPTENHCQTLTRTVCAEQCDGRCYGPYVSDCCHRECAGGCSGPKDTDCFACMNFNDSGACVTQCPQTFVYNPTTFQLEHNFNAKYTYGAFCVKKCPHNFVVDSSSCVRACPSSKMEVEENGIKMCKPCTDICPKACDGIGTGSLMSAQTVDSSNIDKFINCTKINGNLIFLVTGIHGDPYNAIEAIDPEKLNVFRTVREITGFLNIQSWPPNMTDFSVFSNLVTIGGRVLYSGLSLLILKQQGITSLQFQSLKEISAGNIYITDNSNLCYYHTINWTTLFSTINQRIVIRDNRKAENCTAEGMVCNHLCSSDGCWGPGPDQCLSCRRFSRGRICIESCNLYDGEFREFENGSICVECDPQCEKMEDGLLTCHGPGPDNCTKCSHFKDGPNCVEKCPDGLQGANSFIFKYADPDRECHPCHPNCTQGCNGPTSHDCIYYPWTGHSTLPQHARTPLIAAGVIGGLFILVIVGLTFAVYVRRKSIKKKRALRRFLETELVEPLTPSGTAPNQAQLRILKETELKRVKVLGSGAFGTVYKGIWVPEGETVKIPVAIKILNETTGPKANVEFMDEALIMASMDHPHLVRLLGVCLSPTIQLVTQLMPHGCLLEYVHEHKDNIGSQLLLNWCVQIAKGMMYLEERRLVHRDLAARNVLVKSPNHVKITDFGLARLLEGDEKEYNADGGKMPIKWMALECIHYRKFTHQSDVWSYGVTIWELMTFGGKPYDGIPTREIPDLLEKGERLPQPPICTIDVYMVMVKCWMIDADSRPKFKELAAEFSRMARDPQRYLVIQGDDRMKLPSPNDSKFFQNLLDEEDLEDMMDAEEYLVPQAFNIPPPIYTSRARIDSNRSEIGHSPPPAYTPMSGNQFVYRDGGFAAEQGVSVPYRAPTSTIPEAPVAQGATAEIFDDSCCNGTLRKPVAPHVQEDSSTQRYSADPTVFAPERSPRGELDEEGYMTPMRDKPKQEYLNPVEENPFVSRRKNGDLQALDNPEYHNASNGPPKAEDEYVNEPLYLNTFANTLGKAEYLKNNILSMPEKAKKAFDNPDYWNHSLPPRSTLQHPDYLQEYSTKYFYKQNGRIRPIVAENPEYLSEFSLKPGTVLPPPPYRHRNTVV
T2 sequence (P00533 712-979 limits assumed): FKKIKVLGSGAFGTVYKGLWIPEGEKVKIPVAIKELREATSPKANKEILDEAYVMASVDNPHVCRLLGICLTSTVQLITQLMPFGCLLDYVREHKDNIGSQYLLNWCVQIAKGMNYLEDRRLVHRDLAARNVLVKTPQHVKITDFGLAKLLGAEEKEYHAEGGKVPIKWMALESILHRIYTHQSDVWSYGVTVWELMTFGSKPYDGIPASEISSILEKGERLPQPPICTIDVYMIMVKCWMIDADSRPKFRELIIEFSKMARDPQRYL
Sequence of FGFR2 (P21802 22-821): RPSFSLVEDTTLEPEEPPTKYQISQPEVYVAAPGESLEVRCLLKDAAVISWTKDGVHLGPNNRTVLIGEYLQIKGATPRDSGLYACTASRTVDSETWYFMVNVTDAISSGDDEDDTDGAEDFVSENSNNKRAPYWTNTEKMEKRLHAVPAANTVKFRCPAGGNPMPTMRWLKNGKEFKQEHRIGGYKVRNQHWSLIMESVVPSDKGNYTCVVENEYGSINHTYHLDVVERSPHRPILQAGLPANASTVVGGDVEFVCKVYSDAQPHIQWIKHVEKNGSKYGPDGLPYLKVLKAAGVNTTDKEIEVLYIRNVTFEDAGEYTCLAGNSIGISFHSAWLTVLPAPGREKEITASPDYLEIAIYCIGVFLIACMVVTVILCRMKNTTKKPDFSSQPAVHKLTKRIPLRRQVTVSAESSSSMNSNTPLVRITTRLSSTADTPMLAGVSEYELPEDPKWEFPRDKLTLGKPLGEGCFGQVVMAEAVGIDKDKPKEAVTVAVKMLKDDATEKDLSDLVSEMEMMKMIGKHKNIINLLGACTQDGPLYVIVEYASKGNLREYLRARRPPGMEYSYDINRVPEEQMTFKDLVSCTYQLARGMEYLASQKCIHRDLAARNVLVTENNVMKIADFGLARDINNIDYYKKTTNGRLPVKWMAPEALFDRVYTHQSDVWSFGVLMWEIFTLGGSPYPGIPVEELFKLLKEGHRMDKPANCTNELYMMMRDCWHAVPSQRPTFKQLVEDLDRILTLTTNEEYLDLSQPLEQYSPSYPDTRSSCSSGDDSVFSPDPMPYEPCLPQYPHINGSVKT

## COC(=O)C/C(C)=C/C(=O)O[C@@H]1C[C@@H](C)[C@H]2[C@@H](C=C[C@H](CC(C)C)[C@]2(C)C(=O)/C=C\O)[C@@H]1O [Tandyukisin]
[1]
  Kd: 101000 nM
[1]; Figure 4C-D, read-out: ka, EGFR ligand binding domain
  kon: 109 M⁻¹ s⁻¹
[2]; 5 μM
  apoptosis ratio (lower right quadrant, early apoptosis: PI negative, annexin V-FITC positive): 12.10%
[2]; 10 μM
  apoptosis ratio (lower right quadrant, early apoptosis: PI negative, annexin V-FITC positive): 14.37%
[2]; 20 μM
  apoptosis ratio (lower right quadrant, early apoptosis: PI negative, annexin V-FITC positive): 19.24%
[3]
  cell lethality percentage: 67.3% ± 2.7%
[4]; Homo sapiens, MCF7, MTT, 24 h, read-out: EC50, MCF-7 cell viability
  EC50: 3000 ± 1000 nM
[4]; MCF-7, 10 μM
  cell lethality percentage: 75.7% ± 2.3%
[5]
  IC50: > 100000 nM
[6]
  IC50: 31.1 ± 0.1 nM
[7]
  cell lethality percentage: 60.3% ± 3.9%
[8]
  melting temperature (Tm) of EGFR kinase domain: 54.2 °C
